Results from patent US20070066608A1, “Novel indole derivatives with an improved antipsychotic activity” (priority 2003, published 2007).

Legend:
[1] = target: T1, Human Dopamine D2L receptor (Homo sapiens, UniProt P14416); test: Radioligand binding experiment for dopamine D2 receptor (hD2), [3H]Spiperone; settings: membranes of D2L receptor-transfected CHO cells, read-out: pIC50 D2 (converted)
T1 construct: expressed in transfected cells; host or cells: CHO cells
Procedure: (§1) The interaction of the compounds of Formula (I) with dopamine-receptors, h5HT-transporter and h5HT1A receptor was assessed in in vitro radioligand binding experiments. In general, a low concentration of a radioligand with a high binding affinity for a particular receptor or transporter is incubated with a sample of a tissue preparation enriched in a particular receptor or transporter or with a preparation of cells expressing cloned human receptors in a buffered medium. During the incubation, the radioligand binds to the receptor or transporter. When equilibrium of binding is reached, the receptor bound radioactivity is separated from the non-bound radioactivity, and the receptor- or transporter-bound activity is counted The interaction of the test compounds with the receptor is assessed in competition binding experiments. Various concentrations of the test compound are added to the incubation mixture containing the receptor- or transporter preparation and the radioligand. The test compound in proportion to its binding affinity and its concentration inhibits binding of the radioligand.
Human Dopamine D2L receptor-transfected CHO cells were collected by scraping into ice-cold Tris-HCl buffer ([…], pH 7.4). The suspension was centrifuged (23 500×g, 10 min, 4° C.) and pellets stored at −70° C. until require. They were then thawed and briefly homogenised using an Ultra-Turrax T25 homogeniser prior to dilution to an appropriate protein concentration optimised for specific and non-specific binding. [^3H]Spiperone (NEN, specific activity˜70 Ci/mmol) was diluted in Tris-HCl assay buffer containing NaCl, CaCl2, MgCl2, KCI (50, 120, 2, 1, and 5 mM respectively, adjusted to pH 7.7 with HCl) at a concentration of 2 nmol/L. Prepared radioligand (50 μl) was then incubated (30 min, 37° C.) with membrane preparations pre-diluted to an appropriate protein concentration (400 μl), and with 50 μl of either the 10% DMSO control, Butaclamol (10^−6 mol/L final concentration), or compound of interest. Membrane-bound activity was detected by filtration through a Packard Filtermate harvester onto Unifilterplates, washing with ice-old Tris-HCl buffer (50 mM; pH8.0; 3×4 ml). Filters were allowed to dry before adding scintillation fluid and counting in a Topcount scintillation counter. % Specific bound and competition binding curves were calculated using S-Plus software (Insightful).

[2] = target: T2, Human Dopamine D4 receptor (Homo sapiens, UniProt P21917); test: Radioligand binding experiment for dopamine D4 receptor (hD4), [125I]Spiperone; settings: membranes of D4 receptor-transfected Sf9 cells, read-out: pIC50 D4 (converted)
T2 construct: expressed in transfected cells; host or cells: Sf9 cells
T2 sequence (P21917 1-419): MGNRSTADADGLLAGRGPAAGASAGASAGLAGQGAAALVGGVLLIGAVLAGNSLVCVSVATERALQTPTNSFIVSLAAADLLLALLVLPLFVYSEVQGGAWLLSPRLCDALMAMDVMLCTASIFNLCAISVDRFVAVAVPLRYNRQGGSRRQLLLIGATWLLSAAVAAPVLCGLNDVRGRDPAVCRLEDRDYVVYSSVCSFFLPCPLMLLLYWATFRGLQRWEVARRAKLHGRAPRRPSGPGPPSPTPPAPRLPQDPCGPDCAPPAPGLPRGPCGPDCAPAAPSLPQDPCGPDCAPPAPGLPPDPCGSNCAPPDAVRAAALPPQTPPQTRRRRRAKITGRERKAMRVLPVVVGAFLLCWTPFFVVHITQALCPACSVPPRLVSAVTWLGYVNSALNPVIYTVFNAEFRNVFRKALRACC
Procedure: as §1, with “The test compound in proportion to its binding affinity and its concentration inhibits binding of the radioligand.” left out
Human Dopamine D4 receptor-transfected Sf9 cells were collected by scraping into ice-cold Tris-HCl buffer (50 mM, pH 7.4). […] Filters were allowed to dry before adding scintillation fluid and counting in a Topcount scintillation counter. % Specific bound and competition binding curves were calculated using S-Plus software (Insightful).

human 5HT transporter = target: T3, human 5HT transporter (Homo sapiens, UniProt P31645); test: Binding experiment for 5-HT transporter, [3H]Paroxetine; settings: 5HT transporter-transfected HEK cells, [3H]Paroxetine binding; read-out: pIC50 5HT reuptake inhibition (converted)
T3 construct: host or cells: HEK cells
T3 sequence (P31645 whole entry): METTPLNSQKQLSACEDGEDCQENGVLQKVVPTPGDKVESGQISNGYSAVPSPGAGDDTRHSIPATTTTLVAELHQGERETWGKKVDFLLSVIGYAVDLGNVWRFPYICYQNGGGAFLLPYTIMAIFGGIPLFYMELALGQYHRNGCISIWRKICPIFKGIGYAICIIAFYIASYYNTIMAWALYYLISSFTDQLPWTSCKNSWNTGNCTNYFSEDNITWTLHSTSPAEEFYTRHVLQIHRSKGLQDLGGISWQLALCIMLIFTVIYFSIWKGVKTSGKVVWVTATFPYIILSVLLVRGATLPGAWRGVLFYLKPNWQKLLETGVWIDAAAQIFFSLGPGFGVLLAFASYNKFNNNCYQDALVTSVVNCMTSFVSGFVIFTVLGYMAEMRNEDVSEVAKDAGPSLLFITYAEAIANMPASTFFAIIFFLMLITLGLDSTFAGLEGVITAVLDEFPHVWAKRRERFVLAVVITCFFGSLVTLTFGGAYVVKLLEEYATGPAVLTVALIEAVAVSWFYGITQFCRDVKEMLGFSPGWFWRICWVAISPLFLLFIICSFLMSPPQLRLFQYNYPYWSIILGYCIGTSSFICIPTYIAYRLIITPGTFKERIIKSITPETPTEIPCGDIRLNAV
Procedure: as §1
Frozen human 5HT transporter-transfected HEK cells (Perkin Elmer, Brussels) were thawed and briefly homogenised using an Ultra-Turrax T25 homogeniser prior to dilution to an appropriate protein concentration optimised for specific and non-specific binding. [^3H]Paroxetine (NEN, specific activity 20 Ci/mmol) was diluted in Tris-HCl assay buffer containing NaCl and KCl (50 mM 120 mM and 5 mM, respectively; pH 7.4) at a concentration of 5 nmol/L. Prepared radioligand (25 μl) was then incubated (60 min, 25° C.) with membrane preparations (200 μl) and with 25 μl of either 10% DMSO control, Imipramine (10^−6 mol/L final concentration), or compound of interest Membrane-bound activity was detected by filtration through a Packard Filtermate harvester onto Unifilterplates pre-soaked in 0.1% PEI, washing with ice-cold assay buffer (3×4 ml). Filters were dried prior to addition of scintillation fluid and then counting in a Topcount scintillation counter. % Specific bound and competition binding curves were calculated using S-Plus software (Insightful).

Human 5HT1A receptor = target: T4, Human 5HT1A receptor (Homo sapiens, UniProt P08908); test: Binding experiment for 5-HT1A receptor, [3H]8OHDPAT; settings: membranes of 5HT1A receptor-transfected L929 cells, read-out: pIC50 5HT1A (converted)
T4 construct: expressed in transfected cells; host or cells: L929 cells (stably transfected)
T4 sequence (P08908 1-422): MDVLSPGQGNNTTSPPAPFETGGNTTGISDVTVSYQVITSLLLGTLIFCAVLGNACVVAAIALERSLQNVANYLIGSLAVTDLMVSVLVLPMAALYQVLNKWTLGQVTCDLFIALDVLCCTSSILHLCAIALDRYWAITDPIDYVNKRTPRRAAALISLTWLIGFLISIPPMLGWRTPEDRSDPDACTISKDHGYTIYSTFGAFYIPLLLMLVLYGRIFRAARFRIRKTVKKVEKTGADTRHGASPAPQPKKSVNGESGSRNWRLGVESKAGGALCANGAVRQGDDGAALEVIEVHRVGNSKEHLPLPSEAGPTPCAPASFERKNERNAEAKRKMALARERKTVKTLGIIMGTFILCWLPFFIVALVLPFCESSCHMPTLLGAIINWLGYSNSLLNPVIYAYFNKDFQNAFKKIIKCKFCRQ
Procedure: as §1
Human 5HT1A receptor-transfected L929 cells were collected by scraping into ice-cold Tris-HCl buffer (50 mM, pH 7.4). The suspension was centrifuged (23 500×g, 10 min, 4° C.) and pellets stored at −70° C. until required. They were then thawed and briefly homogenised using an Ultra-Turrax T25 homogeniser prior to dilution to an appropriate protein concentration optimised for specific and non-specific binding. [^3H]8OHDPAT (NEN, specific activity 127 Ci/mmol) was diluted in Tris-HCl assay buffer containing CaCl2 (50 mM and 4 mM, respectively; pH 7.7) at a concentration of 5 nmol/L. Prepared radioligand (50 μl) was then incubated (30 min, 37° C.) with membrane preparations from L929 cells stably-transfected with the h5HT1A gene construct (400 μl) and with 50 μl of either the 10% DMSO control, spiroxatrine (10^−6 mol/L final concentration), or compound of interest. Membrane-bound activity was detected by filtration through a Packard Filtermate harvester onto Unifaltemplates, washing with ice-cold Tris-HCI buffer (3×4 ml), followed by drying. Scintillation fluid was added and membranes were counted in a Topcount scintillation counter. % Specific bound and competition binding curves were calculated using S-Plus software (Insightful).

T1 sequence (P14416 whole entry): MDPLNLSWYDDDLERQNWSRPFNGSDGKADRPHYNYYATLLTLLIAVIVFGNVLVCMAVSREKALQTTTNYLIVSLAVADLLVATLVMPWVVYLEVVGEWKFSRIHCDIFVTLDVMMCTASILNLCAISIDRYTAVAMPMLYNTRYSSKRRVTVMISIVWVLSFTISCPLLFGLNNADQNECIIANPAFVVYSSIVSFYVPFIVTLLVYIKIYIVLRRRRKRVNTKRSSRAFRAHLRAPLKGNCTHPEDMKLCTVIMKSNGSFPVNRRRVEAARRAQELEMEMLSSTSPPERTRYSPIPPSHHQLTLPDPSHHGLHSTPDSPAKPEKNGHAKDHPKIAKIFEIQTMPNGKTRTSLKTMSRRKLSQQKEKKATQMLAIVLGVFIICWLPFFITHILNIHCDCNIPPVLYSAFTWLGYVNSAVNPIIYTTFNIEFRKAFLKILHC

Q: For `Fc1ccc2[nH]cc(C3=CCN(CC4COc5ccncc5O4)CC3)c2c1` (stereo not shown) [Compound 4], which IC50 [1] is on record?
A: Its IC50 is 158 nM.

Q: What about the IC50 [2] of the same compound?
A: Its IC50 is 50.1 nM.

Q: What about the IC50 (human 5HT transporter) of the same compound?
A: The IC50 was 50.1 nM.

Q: What about the IC50 (Human 5HT1A receptor) of the same compound?
A: The IC50 was 126 nM.
